BindingDB's records for patent US20250197396 (Lieber Institute, 2025)

Target: Inositol hexakisphosphate kinase 1 (Homo sapiens, UniProt Q92551)
Assay: Not found
Source text: Not found

Chain of Inositol hexakisphosphate kinase 1 (Q92551 whole entry): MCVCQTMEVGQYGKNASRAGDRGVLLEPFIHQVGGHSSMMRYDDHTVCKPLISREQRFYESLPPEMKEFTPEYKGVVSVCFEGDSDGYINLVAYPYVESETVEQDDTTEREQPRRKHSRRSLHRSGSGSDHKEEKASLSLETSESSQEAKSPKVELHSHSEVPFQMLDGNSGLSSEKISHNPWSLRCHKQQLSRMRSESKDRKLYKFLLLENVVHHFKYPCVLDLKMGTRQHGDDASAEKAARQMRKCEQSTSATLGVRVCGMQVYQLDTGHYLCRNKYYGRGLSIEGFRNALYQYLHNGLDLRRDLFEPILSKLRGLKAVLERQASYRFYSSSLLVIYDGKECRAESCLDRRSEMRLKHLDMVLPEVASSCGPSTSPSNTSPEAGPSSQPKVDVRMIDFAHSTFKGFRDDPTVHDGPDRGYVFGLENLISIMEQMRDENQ

SMILES: O=C(O)c1ccc2c(c1)C1(CCN(Cc3ncc(Cl)cc3Cl)CC1)C(=O)N2 [US20250197396, Compound 18a]
- IC50: < 300 nM
